USRE40278E1, “Heterocyclic amines having central nervous system activity” (priority 1993, dated 2008)

What was measured:
5-HT1DA-Clone = biological target: T1, 5-HT1DA-Clone (Homo sapiens, UniProt P28221); test: receptor binding assay, 5-HT1DA clone (5HT ligand)
T1 construct: expressed in transfected cells
Experimental: (§1) Compounds of Example 4 (Formula I where R1 and R2 are propyl, Y is hydrogen and X is —OCH3) were evaluated in an receptor binding assay (5HT Ligand) for calculation of IC50 values and Ki (nM) values. Receptor binding assays are well known tests for evaluating compounds for activity as described in “Cloning and Pharmacological Characterization of a Novel Human […] Receptor Sub-Type”, Mol. Pharm., 42 439-44 (1992), herein incorporated by reference.

5-HT1DB-Clone = biological target: T2, 5-HT1DB-Clone (Homo sapiens, UniProt P28222); test: receptor binding assay, 5-HT1DB clone (5HT ligand)
T2 construct: expressed in transfected cells
Experimental: as §1

5-HT1A-Clone = biological target: T3, 5-HT1A-Clone (Homo sapiens, UniProt P08908); test: receptor binding assay, 5-HT1A clone (DPAT ligand)
T3 construct: expressed in transfected cells
T3 sequence (P08908 1-422): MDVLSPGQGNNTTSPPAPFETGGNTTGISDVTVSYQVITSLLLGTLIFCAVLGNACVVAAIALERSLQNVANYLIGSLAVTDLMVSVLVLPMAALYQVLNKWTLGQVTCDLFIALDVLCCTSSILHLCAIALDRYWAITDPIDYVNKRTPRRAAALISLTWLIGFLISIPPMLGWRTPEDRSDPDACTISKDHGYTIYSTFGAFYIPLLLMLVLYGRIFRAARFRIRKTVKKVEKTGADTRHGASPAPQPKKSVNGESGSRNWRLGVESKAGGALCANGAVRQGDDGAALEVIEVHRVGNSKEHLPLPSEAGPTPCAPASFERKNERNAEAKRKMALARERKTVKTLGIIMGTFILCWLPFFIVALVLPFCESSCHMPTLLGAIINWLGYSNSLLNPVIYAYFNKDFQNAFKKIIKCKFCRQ
Experimental: as §1

[1] = tested on: aggressive behavior of isolated male CF-1 mice; test: isolation-induced aggression assay (latency to attack an intruder mouse); assay type: in vivo; conditions: isolated male CF-1 mice dosed p.o., intruder introduced thirty minutes later, n=6
Experimental: Compounds of the subject invention were evaluated in an isolation-induced aggression assay to measure their ability to control or arrest aggressive behavior as measured against a saline “Control”. Male CF-1 mice (Charles River Labs) were housed singly in wire cage drawers for several weeks of isolation and aggression training. After this, the isolated mouse (weighing 30-50 g) initiated an “attack” whenever an intruder mouse was placed into his cage. Intruders were male CF-1 Charles River mice, about the same size as isolated mice and housed in groups of 12 per cage. For drug testing, the isolated mice were dosed orally (p.o.) with drug or 0.25% methylcellulose vehicle. Thirty minutes later, an intruder mouse was introduced and the latency to attack was recorded. Treatment groups (n=6), including a positive control, were tested by an observer blinded to the treatments, and there was an additional non-blinded vehicle group.

T2 sequence (P28222 whole entry): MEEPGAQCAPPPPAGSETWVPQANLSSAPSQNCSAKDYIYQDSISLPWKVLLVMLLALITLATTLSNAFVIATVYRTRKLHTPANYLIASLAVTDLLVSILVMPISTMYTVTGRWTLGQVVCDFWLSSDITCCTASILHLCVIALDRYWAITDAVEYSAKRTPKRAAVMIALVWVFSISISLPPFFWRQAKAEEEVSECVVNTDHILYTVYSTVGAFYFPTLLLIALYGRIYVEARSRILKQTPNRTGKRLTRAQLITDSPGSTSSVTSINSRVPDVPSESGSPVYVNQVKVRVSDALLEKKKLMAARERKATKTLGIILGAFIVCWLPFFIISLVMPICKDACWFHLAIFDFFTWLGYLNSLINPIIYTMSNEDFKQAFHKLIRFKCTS
T1 sequence (P28221 whole entry): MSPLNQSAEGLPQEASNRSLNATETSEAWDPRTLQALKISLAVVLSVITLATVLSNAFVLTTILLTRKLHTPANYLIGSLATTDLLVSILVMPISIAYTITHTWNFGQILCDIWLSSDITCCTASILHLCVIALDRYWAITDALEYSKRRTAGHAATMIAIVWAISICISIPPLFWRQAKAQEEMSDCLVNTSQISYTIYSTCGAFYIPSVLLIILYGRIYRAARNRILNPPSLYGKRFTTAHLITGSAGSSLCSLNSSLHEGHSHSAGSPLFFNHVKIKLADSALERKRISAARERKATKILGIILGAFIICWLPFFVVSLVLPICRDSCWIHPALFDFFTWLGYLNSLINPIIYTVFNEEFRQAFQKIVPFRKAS

SMILES | Ki (5-HT1DA-Clone) | Ki (5-HT1DB-Clone) | receptor selectivity (in words) (5-HT1DB-Clone; 5-HT1DB versus 5-HT1DA, conclusion from the Ki table) | Ki (5-HT1A-Clone) | enantiomer that carries the activity (in words) (5-HT1A-Clone; comparison of R- and S-enantiomer, conclusion from the Ki table) | latency to attack [1]
CCCN(CCC)C1Cc2cccc3c2n(c(=O)n3OC)C1 (racemic) [Ex. 4 Racemate] | 15.2 nM | 7.17 nM | selective for the 5HT1DB receptor | – | – | –
CCCN(CCC)[C@@H]1Cc2cccc3c2n(c(=O)n3OC)C1 [Ex. 4 R-Enantiomer, (R)-5-Dipropylamino-1-methoxy-5,6-dihydro-4H-imidazo[4,5,1-ij]quinolin-2(1H)-one] | 38 nM | 58 nM | – | 97 nM | the activity resides in the R-enantiomer | –
CCCN(CCC)[C@H]1Cc2cccc3c2n(c(=O)n3OC)C1 [Ex. 4 S-Enantiomer] | – | – | – | 904 nM | – | –
CN[C@@H]1Cc2cccc3c2n(c(=O)n3OC)C1 [Example 1, (R)-5-Methylamino-1-methoxy-5,6-dihydro-4H-imidazo[4,5,1-ij]quinolin-2(1H)-one] | – | – | – | – | – | 600 s
